Data set [1] relates to MDA-MB-435 breast cancer cells. The data set is described as follows: MTT cytotoxicity assay, MDA-MB-435. The settings on record: Homo sapiens. The data set is classed as cell-based, human. An outline of the steps: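 Breast cells were seeded at 4,000 cells/well, allowed to attach, then exposed continuously to drug for 72 h. MTT at 0.5 mg/mL final was added for 4 h at 37 °C, formazan dissolved in DMSO and absorbance read at 570 nm, in triplicate. IC50 came from log(concentration) versus percent cell kill.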

In data set [2] the test system is LNCaP prostate cancer cells. The data set is described as follows: MTT cytotoxicity assay, LNCaP. It is filed as cell-based. The settings on record: Homo sapiens. Here is the method:
(§1) Cytotoxicity was assessed by a 3-(4,5-dimethylthiazol-2-yl)-2,5-diphenyltetrazolium bromide assay as previously described (Carmichael et al. (1987) Cancer Res. 47:936-42). Briefly, cells were seeded in 96-well microtiter plates (PC3 and DU145 at 5,000 cells/well and LNCaP at 10,000 cells/well; breast and ovarian cells at 4,000 cells/well) and allowed to attach. Cells were subsequently treated with a continuous exposure to the corresponding drug for 72 hours. A 3-(4,5-dimethylthiazol-2-yl)-2,5-diphenyltetrazolium bromide solution (at a final concentration of 0.5 mg/mL) was added to each well and cells were incubated for 4 hours at 37° C. After removal of the medium, DMSO was added and the absorbance was read at 570 nm. All assays were done in triplicate. The IC50 was then determined for each drug from a plot of log(drug concentration) versus percentage of cell kill.
Cytotoxicity was assessed by a 3-(4,5-dimethylthiazol-2-yl)-2,5-diphenyltetrazolium bromide (MTT) assay as previously described.^9 Briefly, cells were seeded in 96-well microtiter plates and allowed to attach. Cells were subsequently treated with continuous exposure to the corresponding drug for 72 h. An MTT solution (at a final concentration of 0.5 mg/mL) was added to each well, and cells were incubated for 4 h at 37° C. After removal of the medium, DMSO was added and the absorbance was read at 570 nm. All assays were done in triplicate. The IC50 was then determined for each drug from a plot of log (drug concentration) versus percentage of cells killed.

Data set [3] relates to MDA-MB-468 breast cancer cells. The data set is described as follows: MTT cytotoxicity assay, MDA-MB-468. It is filed as cell-based. The settings on record: Homo sapiens; for IC50: 72 hours continuous exposure, read-out: IC50 values (mean ± SD). Here is the method: (§2) The sensitivity of a panel of seven human cancer cell lines to SC144 was assessed by MTT-assay. […] The sensitivity towards SC144 was time- and dose-dependent.
as §1

Data set [4] concerns CEM or HEY cells. The data set is described as follows: Cytotoxicity of salicylhydrazides (Table 5). The data set is classed as cell-based. The settings on record: Homo sapiens.
Excerpt: Human prostate cancer cells (PC3, p53 null, AR−; DU145, p53 mutant, AR−; and LNCaP, p53 wild-type, AR+) and breast cancer cells (MCF-7, overexpressed wild-type p53, ER+; MDA-MB-468, p53 mutant, […]; and MDA-MB-435, p53 mutant, ER−) were obtained from American Type Cell Culture (Manassas, Va.). The human ovarian carcinoma cell line (HEY) naturally resistant to cisplatin (CDDP) was kindly provided by Dr. Dubeau (University of Southern California Norris Cancer Center; Buick et al. (1985) Cancer Res. 45:3668-76 and Hamaguchi et al. (1993) Cancer Res. 53:5225-32). The results with CEM cells were previously described (Neamati et al. (1998) J. Med. Chem. 41:3202-9). Cells were maintained as monolayer cultures in RPMI 1640 supplemented with 10% fetal bovine serum (Gemini-Bioproducts, Woodland, Calif.) and 2 mmol/L L-glutamine at 37° C. in a humidified atmosphere of 5% CO2. To remove the adherent cells from the flask for passaging and counting, cells were washed with PBS without calcium or magnesium, incubated with a small volume of 0.25% trypsin-EDTA solution (Sigma-Aldrich, St. Louis, Mo.) for 5 to 10 minutes, and washed with culture medium and centrifuged. All experiments were done using cells in exponential cell growth.
as §1

The subject of data set [5] is DU145 prostate cancer cells. In words: MTT cytotoxicity assay, DU145. The data set is classed as cell-based. The settings on record: Homo sapiens; for IC50: DU-145, 72 hours continuous exposure, read-out: IC50 values (mean ± SD). Here is the method: as §2, §1
On the technique in general: Formazan colour is commonly taken as a measure of viable cells.

Data set [6] relates to MCF-7 breast cancer cells. In words: MTT cytotoxicity assay, MCF-7. It is filed as cell-based, human. The settings on record: for IC50: MCF7, 72 hours continuous exposure, read-out: IC50 values (mean ± SD); for CC50: MTT-assay, read-out: CC50 values (mean ± SD). Here is the method:
as §2, §1

The test system of data set [7] is HEY ovarian cancer cells. In words: MTT cytotoxicity assay, HEY. It is filed as cell-based, human. The settings on record: Homo sapiens, HEY; for IC50: 72 hours continuous exposure, read-out: IC50 values (mean ± SD). Here is the method: as §2, §1
The test system of data set [8] is PC3 prostate cancer cells. In words: MTT cytotoxicity assay, PC3. The data set is classed as cell-based. The settings on record: Homo sapiens. The method, then: as §2, §1
The test system of data set [9] is MDA-MB-435 cells. The data set is described as follows: MTT assay, continuous drug exposure for 48 hours (Table 3). The settings on record: for IC80: MDA-MB-435, read-out: CC80. It is filed as cell-based, human.
Data set [10] has as its system MDA-MB-435 cells. The data set is described as follows: Annexin V/PI apoptosis analysis, SC144 and CPT. The data set is classed as cell-based, human. The settings on record: 48 h; IC80. The text has this: Cells were stained with annexin V/PI and analyzed by flow cytometry. Cells in the bottom left quadrant of each panel (Annexin V-negative, PI-negative) are viable, whereas cells in the bottom right quadrant (Annexin V-positive, PI-negative) are in the early stages of apoptosis, and cells in the top right quadrant (Annexin V-positive, PI-positive) are in later stages of apoptosis and necrosis.
An early event in apoptotic cell death is the translocation of the phosphatidyl-serine residues to the outer part of the cell membrane. This event precedes nuclear breakdown, DNA fragmentation, the appearance of most apoptosis-associated molecules, and is readily measured by annexin V binding assay. By this method, SC144 was compared with CPT.

For data set [11], the system named is MCF-7/ADR breast cancer cells. In words: MTT cytotoxicity assay, MCF-7/ADR. The data set is classed as cell-based. The settings on record: Homo sapiens, NCI/ADR-RES, read-out: CC50 values (mean ± SD). The method, then: as §2
The subject of data set [12] is EKVX non-small cell lung cancer cells. The data set is described as follows: Sensitivity of various cancer cells to SC144, EKVX. The settings on record: Homo sapiens. The data set is classed as cell-based. The text has this: (§3) The studies were expanded to other cell lines. […] Subnanomolar to low nanomolar potency was also observed in HCT-116 and HT29 colon cancer cell lines (Table 2).

The test system of data set [13] is SF-268 CNS cancer cells. In words: Sensitivity of various cancer cells to SC144, SF-268. The data set is classed as cell-based. The settings on record: Homo sapiens.
Excerpt: as §3

[14] abbreviates: 72 hours continuous exposure, read-out: IC50 values (mean ± SD).
[15] abbreviates: PC-3, PC3 cells, read-out: IC50 value.
Where [16] appears, read: PC3, 72 hours continuous exposure, read-out: IC50 values (mean ± SD).
Setting [17] is: MTT-assay, read-out: CC50 values (mean ± SD).

Results on three compounds are retold here after patent publication US20110034472A1, “Novel Compounds for Treatment of Cancer and Disorders Associated With Angiogenesis Function” (UNIVERSITY OF SOUTHERN CALIFORNIA, priority 2004, published 2011).

Each structure is given as a SMILES string. Read-outs that look alike come from different tables or passages of the source.

By IC50 is commonly meant the concentration that inhibits the measured activity by half. `O=C(NNC(=O)c1ccccc1O)C1=CC2C=CC=CC2C=C1O` (stereo not drawn) [SC21]: the half-maximal inhibitory concentration (IC50) came out at 0.035 ± 0.007 µM in data set [1] (setting [14]); 0.2 ± 0.07 µM in data set [2] (setting [14]); 0.2 ± 0.002 µM in [3]; 0.4 ± 0.06 µM in data set [4]; 0.12 ± 0.05 µM in [5]; 0.04 ± 0.007 µM in data set [6] (Homo sapiens, MCF-7). The IC50 in [7] is 0.4 ± 0.06 µM; in data set [8] (setting [15]), 3.2 ± 0.2 µM; in [8] (setting [16]), 3.25 µM.

One may read the CC50 as the concentration that lowers cell viability or growth by half. Regarding `O=C(NNC(O)c1cc2ccccc2cc1O)c1cc2ccccc2cc1O` (stereo not drawn) [SC23], the concentration for half-maximal inhibition (IC50) in [1] (setting [14]) came to 0.24 ± 0.028 µM; in data set [2] (setting [14]), 0.85 ± 0.2 µM; in [3], 0.05 ± 0.014 µM; in [4], 2.3 ± 0.2 µM; in [5], 0.05 ± 0.019 µM; in data set [6] (Homo sapiens, MCF-7), 0.28 ± 0.035 µM. The half-inhibitory concentration (IC50) in data set [7] was 2.35 µM; in [8] (setting [15]), 2 ± 0.5 µM; in [8] (setting [16]), 2 µM. For the same compound, in data set [9], the CC50 is 0.04 ± 0.007 µM. For the same compound, the IC80 in data set [9] (Homo sapiens) came out at 0.1 ± 0.01 µM.

`O=C(NNc1nc2cc(F)ccc2n2cccc12)c1cnccn1` [SC144, Pyrazine-2-carboxylic acid N′-(7-fluoro-pyrrolo[1,2-a]quinoxalin-4-yl)-hydrazide]: the IC50 worked out at 4 ± 0.1 µM in data set [1] (MTT, 72 h, read-out: IC50) and 0.4 ± 0.06 µM in [2] (hLNCaP, MTT, 72 h, read-out: IC50). Besides, the CC50 was found to be 4 ± 1.4 µM in data set [1] (setting [17]); 0.7 ± 0.1 µM in data set [3] (setting [17]); 4 ± 1.4 µM in data set [9] (Homo sapiens, MDA-MB-435); 2.5 ± 1 µM in data set [11]; 3 ± 0.3 µM in [5] (DU-145, MTT-assay, read-out: CC50 values (mean ± SD)); 0.01 µM in data set [12]. Moreover, the CC50 amounted to 1.7 ± 0.3 µM in data set [6] (Homo sapiens, MCF7, MCF-7); 2 ± 0.3 µM in data set [6] (MCF-7); 1 ± 0.06 µM in [7] (setting [17]); 10 ± 0.2 µM in data set [8] (PC3, MTT-assay, read-out: CC50 values (mean ± SD)); 0.3 µM in data set [13]. Also, the IC80 in [9] (Homo sapiens) turned out to be 10 ± 0.01 µM. The early-apoptotic cells in data set [10] is recorded as 37%. In data set [10], this compound came in with a late-apoptosis/necrosis of 16%.
